Data taken from article PMC6001238, “Iterative Chemical Engineering of Vancomycin Leads to Novel Vancomycin Analogs With a High in Vitro Therapeutic Index” (Frontiers in Microbiology, 2018).
pIC50: −log10 of the molar value. In brackets after ≈: the same amount, converted by molar mass. Like-named read-outs stand apart in the source and are kept apart here.

Experiments:
E. faecalis VSE 1 = assay: MIC, broth microdilution, vancomycin-sensitive E. faecalis (VSE 1); type: cell-based, Enterococcus faecalis
Procedure, shortened: (§1)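 MIC values come from broth microdilution run to CLSI susceptibility-testing standards. Ultrapure water and uninoculated broth served as controls. In one series, vancomycin at a final 10 μM was co-dosed with the analogue or comparator antibiotic.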

E. faecalis VRE 6 = assay: MIC, broth microdilution, vancomycin-resistant E. faecalis VRE 6 (VanA); type: cell-based, Enterococcus faecalis
Procedure, shortened: as §1

E. faecalis VRE 53 = assay: MIC, broth microdilution, vancomycin-resistant E. faecalis VRE 53 (VanA); type: cell-based, Enterococcus faecalis
Procedure, shortened: as §1

E. faecalis VRE 29 = assay: MIC, broth microdilution, vancomycin-resistant E. faecalis VRE 29 (VanA); type: cell-based, Enterococcus faecalis
Procedure, shortened: as §1

E. faecalis VRE 37 = assay: MIC, broth microdilution, vancomycin-resistant E. faecalis VRE 37 (VanA); type: cell-based, Enterococcus faecalis
Procedure, shortened: as §1

[1] = test system: Murine leukemia (L1210) cells; assay: Cytostatic activity, L1210 cell proliferation; type: cell-based; conditions: Mus musculus, L1210, 48 h, read-out: Toxicity (IC50) L1210
Procedure, shortened: (§2)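 Coulter counter cell counts after 37°C culture with compound; IC50 = concentration giving 50% growth inhibition vs negative control. Incubation: L1210 2 d, CEM 3 d, HeLa 4 d. Suspension density before mixing with an equal volume of dilution: 300,000–500,000 cells/mL.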

[2] = test system: human T-lymphocyte (CEM) cells; assay: Cytostatic activity, CEM cell proliferation; type: cell-based; conditions: Homo sapiens, CCRF-CEM, 72 h, read-out: Toxicity (IC50) CEM
Procedure, shortened: as §2

[3] = test system: human cervix carcinoma (HeLa) cells; assay: Cytostatic activity, HeLa cell proliferation; type: cell-based; conditions: Homo sapiens, HeLa, 96 h, read-out: Toxicity (IC50) HeLa
Procedure, shortened: as §2

[4] = test system: L1210, CEM and HeLa cell lines; assay: Cytostatic activity, average or summary over L1210, CEM and HeLa; type: cell-based
Procedure, shortened: as §2

[5] = test system: S. aureus VSSA (ATCC 6538); assay: MIC, broth microdilution, vancomycin-sensitive S. aureus (VSSA/MSSA, ATCC 6538); type: cell-based, Staphylococcus aureus
Procedure, shortened: as §1

S. aureus VISA/HIP5827 = assay: MIC, broth microdilution, vancomycin-intermediate S. aureus VISA HIP5827; type: cell-based, Staphylococcus aureus
Procedure, shortened: as §1

S. aureus VRSA = assay: MIC, broth microdilution, vancomycin-resistant S. aureus (VRSA); type: cell-based, Staphylococcus aureus
Procedure, shortened: as §1

MRSA KS2 = assay: MIC, broth microdilution, MRSA KS2; type: cell-based, Staphylococcus aureus
Procedure, shortened: as §1

MRSA KS6 = assay: MIC, broth microdilution, MRSA KS6; type: cell-based, Staphylococcus aureus
Procedure, shortened: as §1

MRSA KS89 = assay: MIC, broth microdilution, MRSA KS89; type: cell-based, Staphylococcus aureus
Procedure, shortened: as §1

MRSA KS1 = assay: MIC, broth microdilution, MRSA KS1; type: cell-based, Staphylococcus aureus
Procedure, shortened: as §1

33 clinical VRE isolates = assay: MIC against a set of 33 clinical VRE isolates (range, MIC50, TI); type: cell-based, Enterococcus faecalis; conditions: VRE; for TI (IC50/MIC50): in vitro therapeutic index
Procedure, shortened: as §1

[6] = test system: 24 clinical MRSA isolates; assay: MIC against a set of 24 clinical MRSA isolates (range, MIC50, TI); type: cell-based, Staphylococcus aureus
Procedure, shortened: as §1

[7] = test system: Clostridium difficile ATJ ribotype 014/20; assay: MIC, plate drop assay, C. difficile ATJ ribotype 014/20; type: cell-based
Procedure, shortened: (§3)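 Lawns of each strain were made in soft BHI agar (0.4%) supplemented with CaCl2⋅2H2O and MgCl2⋅6H2O. Twofold compound dilutions (10 μL) were spotted, air-dried and incubated overnight at 37°C anaerobically; MIC read as cleared spots, in triplicate with water as negative control.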

[8] = test system: Clostridium difficile AIU ribotype 027; assay: MIC, plate drop assay, C. difficile AIU ribotype 027; type: cell-based
Procedure, shortened: as §3

VE 148 (VanB) = assay: MIC, VanB-type VRE strain VE 148; type: cell-based, Enterococcus; conditions: Enterococcus
Procedure, shortened: as §1

VE 149 (VanB) = assay: MIC, VanB-type VRE strain VE 149; type: cell-based, Enterococcus; conditions: Enterococcus
Procedure, shortened: as §1

VE 150 (VanB) = assay: MIC, VanB-type VRE strain VE 150; type: cell-based, Enterococcus; conditions: Enterococcus
Procedure, shortened: as §1

VE 152 (VanB) = assay: MIC, VanB-type VRE strain VE 152; type: cell-based, Enterococcus; conditions: Enterococcus
Procedure, shortened: as §1

VE 157 (VanB) = assay: MIC, VanB-type VRE strain VE 157; type: cell-based, Enterococcus; conditions: Enterococcus
Procedure, shortened: as §1

VE 82 (VanC1) = assay: MIC, VanC1-type VRE strain VE 82; type: cell-based, Enterococcus gallinarum; conditions: Enterococcus gallinarum
Procedure, shortened: as §1

MRSA = assay: Minimum bactericidal concentration against MRSA; type: cell-based, Staphylococcus aureus
Protocol: Plates were incubated overnight at 37°C and colony growth was inspected.

CN[C@H](CC(C)C)C(=O)N[C@H]1C(=O)N[C@@H](CC(N)=O)C(=O)N[C@H]2C(=O)N[C@H]3C(=O)N[C@H](C(=O)N[C@H](C(=O)O)c4cc(O)cc(O)c4-c4cc3ccc4O)[C@H](O)c3ccc(c(Cl)c3)Oc3cc2cc(c3O[C@@H]2O[C@H](CO)[C@@H](O)[C@H](O)[C@H]2O[C@H]2C[C@](C)(N)[C@H](O)[C@H](C)O2)Oc2ccc(cc2Cl)[C@H]1O [Vancomycin]
MICvanc/MICi (E. faecalis VSE 1; E. faecalis VSE 1, ratio of MIC of vancomycin and MIC of analogue): 1
MIC (E. faecalis VSE 1; Enterococcus faecalis VSE 1 (vancomycin-sensitive), read-out: MIC): 1.56 µM (≈ 2.26 µg/mL)
MIC (E. faecalis VSE 1; Enterococcus faecalis, VSE1): 1.56 µM (≈ 2.26 µg/mL)
MIC-fold improvement vs. vancomycin (E. faecalis VSE 1; VSE 1, ratio of MIC of vancomycin and MIC of analogue): 1
MICvanc/MICi (E. faecalis VRE 6; E. faecalis VRE 6, ratio of MIC of vancomycin and MIC of analogue): 1
MIC (E. faecalis VRE 6; Enterococcus faecalis VRE 6 (vancomycin-resistant), read-out: MIC): 200 µM (≈ 290 µg/mL)
MIC (E. faecalis VRE 6; Enterococcus faecalis, VRE): 200 µM (≈ 290 µg/mL)
MIC-fold improvement vs. vancomycin (E. faecalis VRE 6; VRE 6, ratio of MIC of vancomycin and MIC of analogue): 1
MICvanc/MICi (E. faecalis VRE 53; E. faecalis VRE 53, ratio of MIC of vancomycin and MIC of analogue): 1
MIC (E. faecalis VRE 53; Enterococcus faecalis VRE 53 (vancomycin-resistant), read-out: MIC): 400 µM (≈ 580 µg/mL)
MIC (E. faecalis VRE 53; Enterococcus faecalis, VRE): 400 µM (≈ 580 µg/mL)
MIC-fold improvement vs. vancomycin (E. faecalis VRE 53; VRE 53, ratio of MIC of vancomycin and MIC of analogue): 1
MIC (E. faecalis VRE 29; Enterococcus faecalis, VRE): 400 µM (≈ 580 µg/mL)
MIC-fold improvement vs. vancomycin (E. faecalis VRE 29; VRE 29, ratio of MIC of vancomycin and MIC of analogue): 1
MIC (E. faecalis VRE 37; Enterococcus faecalis, VRE): 400 µM (≈ 580 µg/mL)
MIC-fold improvement vs. vancomycin (E. faecalis VRE 37; VRE 37, ratio of MIC of vancomycin and MIC of analogue): 1
pIC50 [1]: < 3.60
pIC50 [2]: < 3.60
pIC50 [3]: < 3.60
pIC50 [4]: 3.60
pIC50 ([4]; read-out: IC50 (L1210, CEM, HeLa), depending on the cell line used): < 3.60
pIC50 ([4]; read-out: Toxicity (IC50) Average): < 3.60
MIC ([5]; Staphylococcus aureus, ATCC6538): 0.78 µM (≈ 1.13 µg/mL)
MIC-fold improvement vs. vancomycin ([5]; VSSA, ratio of MIC of vancomycin and MIC of analogue): 1
MIC (S. aureus VISA/HIP5827; Staphylococcus aureus, VISA): 6.25 µM (≈ 9.06 µg/mL)
MIC-fold improvement vs. vancomycin (S. aureus VISA/HIP5827; VISA/HIP5827, ratio of MIC of vancomycin and MIC of analogue): 1
MIC (S. aureus VRSA; Staphylococcus aureus VRSA): 100 µM (≈ 145 µg/mL)
MIC-fold improvement vs. vancomycin (S. aureus VRSA; VRSA, ratio of MIC of vancomycin and MIC of analogue): 1
MIC-fold improvement vs. vancomycin (MRSA KS2; MRSA KS2, ratio of MIC of vancomycin and MIC of analogue): 1
MIC (MRSA KS2; Staphylococcus aureus, MRSA): 0.78 µM (≈ 1.13 µg/mL)
MIC-fold improvement vs. vancomycin (MRSA KS6; MRSA KS6, ratio of MIC of vancomycin and MIC of analogue): 1
MIC (MRSA KS6; Staphylococcus aureus, MRSA): 0.78 µM (≈ 1.13 µg/mL)
MIC-fold improvement vs. vancomycin (MRSA KS89; MRSA KS8 (head; KS89 in title), ratio of MIC of vancomycin and MIC of analogue): 1
MIC (MRSA KS89; Staphylococcus aureus, MRSA): 0.78 µM (≈ 1.13 µg/mL)
MIC-fold improvement vs. vancomycin (MRSA KS1; MRSA KS1, ratio of MIC of vancomycin and MIC of analogue): 1
MIC (MRSA KS1; Staphylococcus aureus, MRSA): 0.78 µM (≈ 1.13 µg/mL)
MIC50 (33 clinical VRE isolates; Enterococcus): 800 µM (≈ 1160 µg/mL)
TI (IC50/MIC50) (33 clinical VRE isolates): 0.3
TI (IC50/MIC50) (33 clinical VRE isolates; listed as vancomycin): < 1
MIC Range ([6]; 24 clinical MRSA isolates): 0.78 to 6.25 µM
MIC50 ([6]; Staphylococcus aureus, MRSA): 1.56 µM (≈ 2.26 µg/mL)
TI (IC50/MIC50) ([6]; in vitro therapeutic index, MRSA): 160
MIC-fold improvement vs. vancomycin ([7]; C. difficile ATJ ribotype 014/20): 1
MIC ([7]; Clostridioides difficile, C. difficile ATJ ribotype 014/20, plate drop assay): 35 µM (≈ 50.7 µg/mL)
MIC-fold improvement vs. vancomycin ([8]; C. difficile AIU ribotype 027): 1
MIC ([8]; Clostridioides difficile, C. difficile AIU ribotype 027, plate drop assay): 45 µM (≈ 65.2 µg/mL)
MIC (VE 148 (VanB)): 100 µM (≈ 145 µg/mL)
MIC (VE 149 (VanB)): 50 µM (≈ 72.5 µg/mL)
MIC (VE 150 (VanB)): 100 µM (≈ 145 µg/mL)
MIC (VE 152 (VanB)): 50 µM (≈ 72.5 µg/mL)
MIC (VE 157 (VanB)): 100 µM (≈ 145 µg/mL)
MIC (VE 82 (VanC1)): 3.13 µM (≈ 4.54 µg/mL)
MBC relative to MIC (MRSA): MBC equaling their MIC values
